# Results taken from BindingDB's records for doi:10.1016/j.bmc.2013.02.056 (Ludwig-Maximilians-University Munich, 2013).
# pIC50: −log10 of the molar value.
# Assays:
# [1] = target: T1, Sodium- and chloride-dependent GABA transporter 2 (Mus musculus, UniProt P31649); assay: Inhibition of mouse GAT2 expressed in HEK cells assessed as inhibition of [3H]-GABA uptake after 25 mins by liquid scintillation counting analysis
# T1 sequence (P31649 whole entry): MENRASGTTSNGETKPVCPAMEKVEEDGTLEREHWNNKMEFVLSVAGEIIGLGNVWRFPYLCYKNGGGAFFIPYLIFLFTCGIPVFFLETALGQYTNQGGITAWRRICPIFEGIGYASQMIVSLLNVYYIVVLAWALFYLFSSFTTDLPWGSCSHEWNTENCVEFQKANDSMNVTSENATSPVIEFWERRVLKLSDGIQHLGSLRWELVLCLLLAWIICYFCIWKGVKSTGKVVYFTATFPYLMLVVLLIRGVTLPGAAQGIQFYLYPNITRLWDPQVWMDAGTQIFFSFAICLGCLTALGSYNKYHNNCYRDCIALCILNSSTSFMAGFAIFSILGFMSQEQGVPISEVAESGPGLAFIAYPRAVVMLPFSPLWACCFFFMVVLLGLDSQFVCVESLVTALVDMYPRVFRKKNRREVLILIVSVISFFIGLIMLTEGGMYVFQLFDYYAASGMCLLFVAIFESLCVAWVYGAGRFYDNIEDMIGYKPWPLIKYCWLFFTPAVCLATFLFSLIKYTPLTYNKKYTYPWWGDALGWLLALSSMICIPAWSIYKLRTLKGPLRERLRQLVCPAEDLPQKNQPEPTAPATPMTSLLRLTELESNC
# [2] = target: T2, Sodium- and chloride-dependent GABA transporter 3 (Mus musculus, UniProt P31650); assay: Inhibition of mouse GAT3 expressed in HEK cells assessed as inhibition of [3H]-GABA uptake after 25 mins by liquid scintillation counting analysis
# T2 sequence (P31650 whole entry): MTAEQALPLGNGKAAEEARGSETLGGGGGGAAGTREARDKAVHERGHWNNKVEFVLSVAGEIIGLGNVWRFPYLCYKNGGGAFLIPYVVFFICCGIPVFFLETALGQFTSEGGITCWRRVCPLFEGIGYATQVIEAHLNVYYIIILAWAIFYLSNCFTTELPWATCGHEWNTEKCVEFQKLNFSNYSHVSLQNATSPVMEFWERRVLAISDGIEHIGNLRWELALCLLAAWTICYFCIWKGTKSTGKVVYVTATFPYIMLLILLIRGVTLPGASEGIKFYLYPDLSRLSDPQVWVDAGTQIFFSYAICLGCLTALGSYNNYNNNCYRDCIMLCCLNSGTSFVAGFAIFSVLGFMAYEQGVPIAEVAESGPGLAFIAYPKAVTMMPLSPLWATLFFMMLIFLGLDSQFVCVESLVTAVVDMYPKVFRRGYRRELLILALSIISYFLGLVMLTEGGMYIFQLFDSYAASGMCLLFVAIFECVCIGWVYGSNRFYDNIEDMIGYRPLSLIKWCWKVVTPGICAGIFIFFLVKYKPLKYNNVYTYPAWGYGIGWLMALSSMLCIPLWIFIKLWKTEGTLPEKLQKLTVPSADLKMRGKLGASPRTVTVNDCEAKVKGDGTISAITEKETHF
pIC50 [1],pIC50 [2],SMILES
4.22,3.47,O=C(c1cccc(F)c1)c1ccc(F)cc1/C=C/OCCN1CCCC(C(=O)O)C1 (centres undefined)
4.04,4.30,O=C(O)C1CCCN(CCO/C=C\c2cc(F)ccc2Cc2ccc(F)cc2)C1 (centres undefined)
–,4.55,O=C(O)C1CCCN(CCO/C=C\c2cc(F)ccc2Cc2ccccc2F)C1 (centres undefined)
4.18,–,O=C(c1ccccc1F)c1cc(F)ccc1/C=C\OCCN1CCCC(C(=O)O)C1 (centres undefined)
–,4.71,O=C(O)C1CCCN(CCO/C=C\c2ccc(F)cc2Cc2ccccc2F)C1 (centres undefined)
–,4.46,O=C(O)C1CCCN(CCO/C=C\c2ccc(F)cc2Cc2ccc(F)cc2)C1 (centres undefined)
3.85,3.43,O=C(c1ccccc1F)c1cc(F)ccc1/C=C/OCCN1CCCC(C(=O)O)C1 (centres undefined)
–,4.70,O=C(O)C1CCCN(CCO/C=C\c2cc(F)ccc2Cc2cccc(F)c2)C1 (centres undefined)
–,4.43,O=C(O)C1CCCN(CCO/C=C/c2ccccc2Cc2ccccc2)C1 (centres undefined)
3.43,3.71,"O=C(O)[C@@H]1CCCN(CCC=C(c2ccccc2)c2ccccc2)C1 [(R)-1-(4,4-Diphenyl-but-3-enyl)-piperidine-3-carboxylic acid]"
